Results reported in patent US20200179327A1, “USE OF PHENOLIC COMPOUNDS FROM OLEA EUROPAEA” (McCord Research, Inc., priority 2017, published 2020).

Key:
[1] = tested on: peripheral blood mononuclear cells (PBMC); test: Cell viability/proliferation, Cell-Titer Blue, PBMC; format: cell-based, human; conditions: 0-800 μM, 24, 48 or 72 hours
Procedure: (§1) Human peripheral blood mononuclear cells (PBMCs) were fractionated using the Ficoll Plaque fractionation method from whole blood obtained from the Australian Red Cross Blood Bank (ARCB) under ethic approval (#304/12). Cells were harvested fresh on the day of the experiments and maintained in complete-RPMI-1640 medium supplemented with 10% FBS, 2 mM L-glutamine and 20 μg/mL gentamicin at 37° C., 5% (v/v) CO2. Human aortic endothelial cells (HAECs, ATCC) and the equivalent cells taken for patients with Type II diabetes (DII-HAECs, ATCC) were cultured in endothelial cell growth medium (ECM) supplemented with 100 U/ml penicillin, 100 μg/ml streptomycin, 0.25 μg/ml fungizone, 2 mM L-glutamine, 5 U/ml heparin, 30-50 μg/ml endothelial cell growth supplement (Technoclone, Vienna, Austria). All cells were passaged by typsination and seeded into 6 well culture dishes at cell densities of 1×10^6 cells per well; at 37° C., 5% (v/v) CO2. […] Cell viability was measured using the Cell-Titer Blue® Assay kit (Promega, Madison, Wis., USA) according to the manufacturer's instructions. Cell-Titer Blue reagent was added to each well and incubated for 4 hours at 37° C., 5% CO2, before reading fluorescence intensity (550 nm excitation; 615 nm emission) using the CLARIOstar (BMG LABTECH, Offenburg, Germany) microplate reader. […]

[2] = tested on: primary skin fibroblasts (BJ); test: Cell viability/proliferation, Cell-Titer Blue, BJ; format: cell-based, human; conditions: 0-800 μM, 24, 48 or 72 hours
[3] = tested on: primary human aortic endothelial cells from a healthy patient (h-HAEC); test: Cell viability/proliferation, Cell-Titer Blue, h-HAEC; format: cell-based; conditions: 0-800 μM, 24, 48 or 72 hours
Procedure: as §1

[4] = tested on: human aortic endothelial cells from patient with Type II diabetes (DII-HAEC); test: Cell viability/proliferation, Cell-Titer Blue, DII-HAEC; format: cell-based; conditions: 0-800 μM, 24, 48 or 72 hours
Procedure: as §1

[5] = biological target: T1, lysine-specific demethylase 1 (LSD1) (Homo sapiens, UniProt O60341); test: EpiQuik Histone Demethylase LSD1 inhibitor screening assay; format: biochemical; conditions: 10-dose, 2-fold dilution from 200 μM; read-out: LSD1 enzyme activity inhibition IC50
T1 construct: purchased EpiGentek

COX-1 [6] = biological target: T2, COX-1 (Ovis aries, UniProt P05979); test: COX-1/2 inhibitor screening kit (BioVision), COX-1; format: biochemical; conditions: 10-dose, 2-fold dilution from 1000 μM; read-out: COX-1 inhibition IC50
T2 construct: purchased BioVision
T2 sequence (P05979 25-600): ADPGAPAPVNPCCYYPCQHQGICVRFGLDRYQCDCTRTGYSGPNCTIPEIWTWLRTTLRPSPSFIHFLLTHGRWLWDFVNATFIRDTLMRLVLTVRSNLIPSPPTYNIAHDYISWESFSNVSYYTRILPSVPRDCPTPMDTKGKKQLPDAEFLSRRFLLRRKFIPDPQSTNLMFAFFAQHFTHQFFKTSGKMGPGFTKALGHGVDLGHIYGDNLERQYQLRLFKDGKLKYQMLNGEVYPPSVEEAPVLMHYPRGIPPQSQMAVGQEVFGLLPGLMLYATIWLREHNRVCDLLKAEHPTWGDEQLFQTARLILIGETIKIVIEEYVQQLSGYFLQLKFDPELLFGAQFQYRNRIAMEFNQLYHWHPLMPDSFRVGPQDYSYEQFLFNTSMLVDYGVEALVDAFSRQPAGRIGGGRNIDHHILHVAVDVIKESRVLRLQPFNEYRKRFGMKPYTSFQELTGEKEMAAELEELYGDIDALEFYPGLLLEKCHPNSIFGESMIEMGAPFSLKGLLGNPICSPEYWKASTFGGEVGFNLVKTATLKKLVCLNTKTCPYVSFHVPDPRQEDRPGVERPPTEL
Procedure: (§2) Inhibition of individual COX-1 and COX-2 enzymes by MMBHTE and oleocanthal was measured using the COX-1/2 inhibitor screening kit (BioVision, Milpatas, Calif., USA), according to the manufacturer's instructions. […] The production of prostaglandin G2, the intermediate product generated by the COX enzyme in the presence of arachidonic acid is measured by coupling with HRP and COX substrate and fluorescence was measured using the CLARIOstar microplate reader at Ex/Em=535/587 nm. Data is represented at the percentage of COX enzymatic activity inhibition relative to the log of the compound and a curve fit for the control compound. Corresponding IC50 values were calculated.
(§3) FIG. 6A and FIG. 6B show the inhibition activities of MMBHTE and Oleocanthal on COX-1 and COX-2, respectively. The data shown in FIG. 6A and FIG. 6B indicates all the test samples fell within the detectable range. The data shown in FIG. 6A and FIG. 6B is represented as the percentage of COX enzymatic activity inhibition relative to the log of the concentrations and best-fit curves for MMBHTE and Oleocanthal. Corresponding IC50 values were calculated. […] Therefore, MMBHTE is a […] COX-1 and COX-2 inhibitor.

COX-2 [7] = biological target: T3, COX-2 (Homo sapiens, UniProt P35354); test: COX-1/2 inhibitor screening kit (BioVision), COX-2; format: biochemical; conditions: 10-dose, 2-fold dilution from 1000 μM; read-out: COX-2 inhibition IC50
T3 construct: purchased BioVision
T3 sequence (P35354 18-604): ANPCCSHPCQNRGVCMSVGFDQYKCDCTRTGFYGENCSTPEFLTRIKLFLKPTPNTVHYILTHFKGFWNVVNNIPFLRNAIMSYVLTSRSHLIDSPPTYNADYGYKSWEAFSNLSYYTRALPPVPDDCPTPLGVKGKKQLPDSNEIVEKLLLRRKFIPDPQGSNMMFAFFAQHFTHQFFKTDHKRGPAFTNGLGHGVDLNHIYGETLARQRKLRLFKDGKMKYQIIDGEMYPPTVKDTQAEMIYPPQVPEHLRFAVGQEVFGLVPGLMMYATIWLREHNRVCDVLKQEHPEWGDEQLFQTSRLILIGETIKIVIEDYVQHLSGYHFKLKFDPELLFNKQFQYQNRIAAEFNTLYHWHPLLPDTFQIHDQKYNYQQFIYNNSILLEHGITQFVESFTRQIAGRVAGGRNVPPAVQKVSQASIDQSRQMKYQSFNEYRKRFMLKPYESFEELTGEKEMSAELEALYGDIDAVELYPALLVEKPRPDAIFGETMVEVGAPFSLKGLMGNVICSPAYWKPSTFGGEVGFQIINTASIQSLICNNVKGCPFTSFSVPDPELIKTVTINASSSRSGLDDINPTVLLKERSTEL
Procedure: as §2, §3

[8] = biological target: T4, monoamine oxidase A (MAO-A) (Homo sapiens, UniProt P21397); test: Monoamine Oxidase A (MAO-A) Inhibitor Screening Kit; format: biochemical; conditions: 10-dose, 2-fold dilution from 100 μM; substrate tyramine; read-out: MAO-A inhibition IC50
T4 construct: purchased Sigma-Aldrich
T4 sequence (P21397 1-527): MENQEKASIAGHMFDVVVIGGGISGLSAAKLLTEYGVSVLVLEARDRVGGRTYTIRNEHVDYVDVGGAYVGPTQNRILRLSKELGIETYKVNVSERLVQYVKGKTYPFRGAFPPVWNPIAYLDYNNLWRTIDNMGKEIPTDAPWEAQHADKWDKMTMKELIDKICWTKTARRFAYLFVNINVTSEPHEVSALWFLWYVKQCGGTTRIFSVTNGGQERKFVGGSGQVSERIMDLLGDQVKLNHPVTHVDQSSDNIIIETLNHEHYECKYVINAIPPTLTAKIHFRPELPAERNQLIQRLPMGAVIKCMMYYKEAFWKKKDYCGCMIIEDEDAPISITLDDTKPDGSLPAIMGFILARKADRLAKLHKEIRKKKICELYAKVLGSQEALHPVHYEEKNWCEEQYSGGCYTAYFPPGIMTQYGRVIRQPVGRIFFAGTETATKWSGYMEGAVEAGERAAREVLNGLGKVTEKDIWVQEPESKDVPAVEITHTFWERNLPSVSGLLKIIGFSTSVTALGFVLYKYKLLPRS
Procedure: The production of H2O2 generated by the oxidative deamination of the MAO substrate tyramine was measured fluorometrically using the CLARIOstar microplate reader at Ex/Em=535/587 nm. Data is represented as the percentage of MAO enzymatic activity inhibition relative to the log of the compound and a curve fit for the control compound. Corresponding IC50 values were calculated.

COX-1 [9] = biological target: COX-1 (Homo sapiens, UniProt P23219); conditions: in vitro; cited from earlier work
COX-2 [10] = biological target: T3, COX-2; conditions: in vitro; cited from earlier work
lipoxygenase = conditions: in vitro; cited from earlier work

Chain of COX-1 (Homo sapiens, UniProt P23219) (P23219 24-599): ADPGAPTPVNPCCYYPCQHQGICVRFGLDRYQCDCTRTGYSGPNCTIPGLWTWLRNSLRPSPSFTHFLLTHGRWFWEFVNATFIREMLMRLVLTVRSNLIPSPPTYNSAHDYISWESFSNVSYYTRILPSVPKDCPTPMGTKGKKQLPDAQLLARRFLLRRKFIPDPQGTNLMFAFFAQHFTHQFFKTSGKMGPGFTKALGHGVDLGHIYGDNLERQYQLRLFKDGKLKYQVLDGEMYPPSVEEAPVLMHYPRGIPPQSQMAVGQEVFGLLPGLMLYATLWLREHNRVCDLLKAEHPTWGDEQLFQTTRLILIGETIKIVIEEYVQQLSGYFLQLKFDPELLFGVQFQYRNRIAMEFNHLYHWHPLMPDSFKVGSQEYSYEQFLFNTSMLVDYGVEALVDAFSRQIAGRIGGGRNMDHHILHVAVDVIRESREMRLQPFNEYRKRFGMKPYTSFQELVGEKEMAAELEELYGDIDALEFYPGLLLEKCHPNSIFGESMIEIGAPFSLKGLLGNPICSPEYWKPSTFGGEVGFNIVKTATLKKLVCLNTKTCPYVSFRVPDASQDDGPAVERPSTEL

IC50 [5] | IC50 (COX-1 [6]) | IC50 (COX-2 [7]) | IC50 [8] | Compound | toxicity profile (cell viability) [1] | toxicity profile (cell viability) [2] | toxicity profile (cell viability) [3] | toxicity profile (cell viability) [4] | inhibition of COX-1 (COX-1 [9]) | inhibition of COX-2 (COX-2 [10]) | effect on lipoxygenase (lipoxygenase)
0.0119 µM | 1.72 ± 0.09 µM | 81.6 ± 7.7 µM | 0.443 ± 0.158 µM | COC(=O)[C@H](O)CC(=O)OCCc1ccc(O)c(O)c1 (stereo in doubt) [MMBHTE, methyl malate-β-hydroxytyrosol ester] | very favorable toxicity profile | very favorable toxicity profile | very favorable toxicity profile | very favorable toxicity profile |  |  | 
0.0218 µM |  |  | 39.1 ± 31.5 µM | OCCc1ccc(O)c(O)c1 [HT, hydroxytyrosol, reference compound] |  |  |  |  |  |  | 
 | 0.43 ± 0.05 µM | 352 ± 7.7 µM |  | C/C=C(/C=O)[C@@H](CC=O)CC(=O)OCCc1ccc(O)cc1 [Oleocanthal] |  |  |  |  | dose-dependent inhibitor | dose-dependent inhibitor | no effect
